Data reported in patent US20260355184A1, “SMALL MOLECULE DEGRADERS OF HIV-1 TAT PROTEIN” (priority 2022, published 2026).
Read-outs that look alike come from different tables or passages of the source.

How the values were obtained:
HIV NL4.3 strain = test: HIV infectivity assay, reporter cell line HeLa-CD4-LTR-LacZ, β-Gal activity (Tat protein inhibition); format: cell-based, HIV-1 (NL4.3)
Experimental: (§1) Next, the activity of these leads against HIV infection was evaluated using the reporter cell line HeLa-CD4-LTR-LacZ, which stably expresses the β-galactosidase (β-Gal) gene under the control of the HIV 5′ LTR. The HIV NL4.3 strain was used for these studies and β-Gal activity was measured 72 hrs post infection (FIG. 3A). Cytotoxicity assays using Cell-Titer-Glo were performed in parallel to assess cell viability (FIG. 3A). […] Their anti-HIV activity was further assessed in acute replication of Jurkat T cells with the NL4.3 strain (FIG. 3A). […] These OM10.1 cells contain a single integrated wild-type provirus, while ACH-2 cells contain a single integrated provirus with a TAR mutation C37T, defective Tat-TAR feedback loop (FIG. 3B).

[1] = Cytotoxicity assay, Cell-Titer-Glo, HeLa-CD4-LTR-LacZ; conditions: human, hela-cd4-ltr-lacz cells
Experimental: as §1

[2] = Infectivity CC50, HeLa-CD4-LTR-LacZ, analogs of TT-44856 (Table 3)
[3] = Human immunodeficiency virus 1, read-out: Infectivity IC50, HeLa-CD4-LTR-LacZ, analogs of TT-44856 (Table 3)
[4] = Human immunodeficiency virus 1, read-out: Infectivity IC50, HeLa-CD4-LTR-LacZ, analogs of TT-44881 (Table 1)
[5] = Infectivity CC50, HeLa-CD4-LTR-LacZ, analogs of TT-44881 (Table 1)

Structure (SMILES) | CC50 [1, 2] [µM] | IC50 (HIV NL4.3 strain; [3]) [µM] | also measured
COc1ccc(C(F)(F)F)cc1NC(=O)C(C)n1cc(C(F)(F)F)cc(-c2ccccc2)c1=O (stereo not drawn) | – | – | IC50 (HIV NL4.3 strain; Human immunodeficiency virus 1, read-out: Infectivity IC50, HeLa-CD4-LTR-LacZ, analogs of TT-44863 (Table 2)): > 100 µM; CC50 ([1]; Infectivity CC50, HeLa-CD4-LTR-LacZ, analogs of TT-44863 (Table 2)): > 100 µM
O=C(NCCCn1ccnc1)c1ccc2ccccc2c1 [3-34] | > 100 | – | –
O=C(NCCCn1ccnc1)C1c2ccccc2-c2ccccc21 [3-35] | > 100 | 50 to 100 | –
O=C(NCCCn1ccnc1)C1(O)c2ccccc2-c2ccccc21 [3-36] | – | – | IC50 (HIV NL4.3 strain; Human immunodeficiency virus 1, read-out: Infectivity IC50): 20 to 50 µM; CC50 [1]: > 100 µM
O=C(NCCCn1ccnc1)c1cc2cccnc2[nH]1 [3-37] | > 100 | > 100 | –
O=C(NCCCn1ccnc1)c1cc(O)c2cc(Cl)ccc2n1 [3-38] | > 100 | > 100 | –
O=C(NCCCn1ccnc1)c1cc(Cl)nc2ccccc12 [3-39] | > 100 | > 100 | –
O=C(NCCCn1ccnc1)c1ccc(-n2cc(Br)cn2)cc1 [3-40] | > 100 | > 100 | –
O=C(NCCCn1ccnc1)c1cc2cc(Cl)ccc2[nH]1 [3-41] | > 100 | > 100 | –
NC(C(=O)NCCCn1ccnc1)(c1ccccc1)c1ccccc1 [3-42] | > 100 | 10 to 30 | –
COc1ccccc1CCNC(=O)C(C)(c1ccccc1)c1ccccc1 [3-43] | 25 to 50 | 20 to 100 | –
CC(C(=O)Nc1cc(OCc2ccccc2)ccn1)(c1ccccc1)c1ccccc1 [3-44] | > 100 | 1 to 30 | –
CC(C(=O)NCCc1ccc(C(F)(F)F)cc1)(c1ccccc1)c1ccccc1 [3-45] | 50 to 100 | 10 to 20 | –
CC(C(=O)NCCc1ccccc1)(c1ccccc1)c1ccccc1 [3-46] | 20 to 50 | 50 to 100 | –
CC(NC(=O)C(C)(c1ccccc1)c1ccccc1)c1ccccc1 (stereo not drawn) [3-47] | > 100 | 10 to 30 | –
COc1ccc(C(C(=O)NCCCn2ccnc2)c2ccccc2)cc1 (stereo not drawn) [3-48] | > 100 | 20 to 50 | –
CCC(C(=O)NCCCn1ccnc1)(c1ccccc1)c1ccccc1 [3-49] | > 100 | 1 to 10 | –
CC1(C(=O)NCCCn2ccnc2)c2ccccc2-c2ccccc21 [3-50] | > 100 | 1 to 20 | –
CN1CCN(CCNC(=O)C(C)(c2ccccc2)c2ccccc2)CC1 [3-51] | > 100 | > 100 | –
Cc1nccn1CCCNC(=O)C(C)(c1ccccc1)c1ccccc1 [3-52] | > 100 | 1 to 10 | –
CC(C)c1nccn1CCCNC(=O)C(C)(c1ccccc1)c1ccccc1 [3-54] | 50 to 100 | 1 to 20 | –

Structure (SMILES) | CC50 [1, 2] [µM] | IC50 (HIV NL4.3 strain; [3]) [µM] | also measured
CC(C(=O)NCCCN1CCNCC1)(c1ccccc1)c1ccccc1 [3-55] | > 100 | > 100 | –
CCc1nccn1CCCNC(=O)C(C)(c1ccccc1)c1ccccc1 [3-56] | > 100 | 10 to 20 | –
CCCC(C(=O)NCCCn1ccnc1)(c1ccccc1)c1ccccc1 [3-57] | > 100 | 1 to 10 | –
O=C(NCCCn1ccnc1)C(c1ccccc1)(c1ccccc1)c1ccccc1 [3-58] | > 100 | 1 to 20 | –
CC(C(=O)NCC1CCCNC1)(c1ccccc1)c1ccccc1 (stereo not drawn) [3-59] | > 100 | 1 to 30 | –
CCCC(=O)NC(C(=O)NCCCn1ccnc1)(c1ccccc1)c1ccccc1 [3-60] | > 100 | > 100 | –
O=C(NCCCn1ccnc1)C1c2ccccc2Oc2ccccc21 [3-61] | > 100 | > 100 | –
CCCC(=O)NCc1cn(CCCNC(=O)C(C)(c2ccccc2)c2ccccc2)cn1 [3-62] | > 100 | > 100 | –
O=C(NCCCn1ccnc1)c1nn(-c2ccccc2)c2c1CCC2 [3-63] | 1 to 10 | 1 to 10 | –
CC(C(=O)NCCCn1cnc(CNC(=O)OCc2ccccc2)c1)(c1ccccc1)c1ccccc1 [3-64] | 20 to 50 | 10 to 30 | –
CCCC(C(=O)NCCCn1ccnc1C)(c1ccccc1)c1ccccc1 [3-65] | 50 to 100 | 1 to 10 | –
CCCC(C(=O)NCCCn1c(C)nc2ccccc21)(c1ccccc1)c1ccccc1 [3-66] | 20 to 50 | 20 to 50 | –
Cc1nccn1CCCNC(=O)C(c1ccccc1)(c1ccccc1)c1ccccc1 [3-67] | 50 to 100 | 1 to 20 | –
O=C(NCCCn1cnc2ccccc21)C(c1ccccc1)(c1ccccc1)c1ccccc1 [3-68] | 20 to 50 | 10 to 30 | –
CCC(C(=O)NCCCn1ccnc1C)(c1ccccc1)c1ccccc1 [3-69] | > 100 | 1 to 10 | –
CCC(C(=O)NCCCn1cnc2ccccc21)(c1ccccc1)c1ccccc1 [3-70] | 50 to 100 | 20 to 50 | –
CCC(C(=O)NCCCn1ccnc1)c1ccccc1 (stereo not drawn) [3-72] | > 100 | > 100 | –
O=C1N(CCCn2ccnc2)CCC1(c1ccccc1)c1ccccc1 [3-73] | > 100 | 10 to 50 | –
O=C(NCCCn1ccnc1)C(CCO)(c1ccccc1)c1ccccc1 [3-74] | > 100 | 1 to 20 | –
CCCCOCCC(C(=O)NCCCn1ccnc1)(c1ccccc1)c1ccccc1 [3-75] | > 100 | 50 to 100 | –
CC(C(=O)NCCCc1cccnc1)(c1ccccc1)c1ccccc1 [3-76] | 10 to 30 | 1 to 30 | –

Structure (SMILES) | CC50 [1, 2] [µM] | IC50 (HIV NL4.3 strain; [3]) [µM] | also measured
O=C(NCCCN1CCCC1=O)c1nn(-c2ccccc2)c2c1CCCCC2 [GB-03] | – | – | IC50 (HIV NL4.3 strain; [4]): > 100 µM; CC50 [1, 5]: > 100 µM
CCN(CCCN1CCCC1=O)C(=O)c1nn(-c2ccccc2)c2c1CCC2 [GB-05] | – | – | IC50 (HIV NL4.3 strain; [4]): > 100 µM; CC50 [1, 5]: > 100 µM
CCCN(CCCN1CCCC1=O)C(=O)c1nn(-c2ccccc2)c2c1CCC2 [GB-06] | – | – | IC50 (HIV NL4.3 strain; [4]): 5 to 30 µM; CC50 [1, 5]: > 100 µM
CCCCN(CCCN1CCCC1=O)C(=O)c1nn(-c2ccccc2)c2c1CCC2 [GB-07] | – | – | IC50 (HIV NL4.3 strain; [4]): 50 to 100 µM; CC50 [1, 5]: 50 to 100 µM
CC(C)N(CCCN1CCCC1=O)C(=O)c1nn(-c2ccccc2)c2c1CCC2 [GB-08] | – | – | IC50 (HIV NL4.3 strain; [4]): 30 to 50 µM; CC50 [1, 5]: > 100 µM
O=C1CCCN1CCCN(Cc1ccccc1)C(=O)c1nn(-c2ccccc2)c2c1CCC2 [GB-09] | – | – | IC50 (HIV NL4.3 strain; [4]): 25 to 50 µM; CC50 [1, 5]: 25 to 50 µM
O=C(NCCCN1CCCC1=O)c1nn(-c2ccccc2)c2c1CCC1(C2)OCCO1 [GB-10] | – | – | IC50 (HIV NL4.3 strain; [4]): > 100 µM; CC50 [1, 5]: > 100 µM
O=C1CCc2c(C(=O)NCCCN3CCCC3=O)nn(-c3ccccc3)c2C1 [GB-11] | – | – | IC50 (HIV NL4.3 strain; [4]): 10 to 20 µM; CC50 [1, 5]: > 100 µM
O=C(NCCCN1CCCC1=O)c1nn(-c2ccccc2)c2c1CCC(O)C2 (stereo not drawn) [GB-12] | – | – | IC50 (HIV NL4.3 strain; [4]): 1 to 10 µM; CC50 [1, 5]: > 100 µM
CCc1cc(C(=O)NCCCN2CCCC2=O)nn1-c1ccccc1 [GB-13] | – | – | IC50 (HIV NL4.3 strain; [4]): 10 to 20 µM; CC50 [1, 5]: > 100 µM
O=C(Cc1c(Cl)cccc1Cl)NCCCn1ccnc1 [Z30217435] | – | > 100 | –
O=C(Cc1cccc(C(F)(F)F)c1)NCCCn1ccnc1 [Z30217436] | – | > 100 | –
O=C(CC(c1ccccc1)c1ccccc1)NCCCn1ccnc1 [Z30217483] | – | > 100 | –
CNc1ccccc1CC(=O)NCCCn1ccnc1 [Z31794405] | – | > 100 | –
O=C(Cc1ccc2ccccc2c1)NCCCn1ccnc1 [Z31795124] | – | > 100 | –
O=C(Cc1cccc2ccccc12)NCCCn1ccnc1 [Z31795406] | – | > 100 | –
O=C(NCCCn1ccnc1)c1ccc2ccccc2c1 [Z31795639] | – | > 100 | –
O=C(NCCCn1ccnc1)c1ccc(-c2ccccc2)cc1 [Z31795699] | – | > 100 | –
O=C(Cc1ccc(F)cc1)NCCCn1ccnc1 [Z31795779] | – | > 100 | –
O=C(Cc1ccccc1F)NCCCn1ccnc1 [Z31795827] | – | > 100 | –
COc1cccc(CC(=O)NCCCn2ccnc2)c1 [Z31796092] | – | > 100 | –

Structure (SMILES) | CC50 [1, 2] [µM] | IC50 (HIV NL4.3 strain; [3]) [µM] | also measured
O=C(Cc1cccc(F)c1)NCCCn1ccnc1 [Z31796183] | – | > 100 | –
O=C(Cc1ccccc1Cl)NCCCn1ccnc1 [Z31796195] | – | > 100 | –
O=C(Cc1ccc2c(c1)CCC2)NCCCn1ccnc1 [Z51979499] | – | > 100 | –
O=C(COC(c1ccccc1)c1ccccc1)NCCCn1ccnc1 [Z51979572] | – | > 100 | –
Cc1ccccc1CC(=O)NCCCn1ccnc1 [Z51979592] | – | > 100 | –
O=C(NCCCn1ccnc1)c1ccc(Oc2ccccc2)cc1 [Z56813845] | – | > 100 | –
Cc1ccc(CC(=O)NCCCn2ccnc2)cc1 [Z100612606] | – | > 100 | –
CC(CNC(=O)CCn1cnc2ccccc21)(c1ccccc1)c1ccccc1 [Z119886832] | – | > 100 | –
Cc1ccc(CCC(=O)NCCCn2ccnc2)cc1 [Z196426172] | – | > 100 | –
CC(CNC(=O)CCn1cncn1)(c1ccccc1)c1ccccc1 [Z221503086] | – | > 100 | –
O=C(Cc1ccc(C(F)(F)F)cc1)NCCCn1ccnc1 [Z236749082] | – | > 100 | –
O=C(NCCCn1ccnc1)N(Cc1ccccc1)Cc1ccccc1 [Z991981670] | – | > 100 | –
CC(C(=O)NCCCn1ccnc1)c1c(Cl)cccc1Cl (stereo not drawn) [Z1004969394] | – | > 100 | –
CC(C)(C(=O)NCCCn1ccnc1)c1cccc(C(F)(F)F)c1 [Z1053536312] | – | > 100 | –
Cc1nccn1CCCNC(=O)C(C)(C)c1ccccc1Cl [Z1119105307] | – | > 100 | –
CCC(=O)NC(C(=O)NCCCn1ccnc1)c1ccccc1 (stereo not drawn) [Z1207330250] | – | > 100 | –
CC(CNC(=O)Cc1c(F)cccc1Cl)Cn1ccnc1 (stereo not drawn) [Z1250741002] | – | > 100 | –
CC(C)(C(=O)NCCCn1ccnc1)c1cccc(C(F)(F)F)c1 [compound 46606] | > 100 | – | –
